What was measured:
[1] = system: isolated Guinea Pig heart muscles; assay: Effects of compounds on contractile response of isolated Guinea Pig heart muscles (right ventricular papillary muscles); conditions: Cavia porcellus, read-out: Contractilities; for activation at 100 µM: Concentration 10^-4 M; for activation at 10 µM: Concentration 10^-5 M; for activation at 1 µM: Concentration 10^-6 M
Protocol: Effects of compounds on contractile response of isolated Guinea Pig heart muscles
Male guinea pigs weighing 300 to 500 g were stunned with a blow on the head and exsanguinated. The chest was opened rapidly, the heart was excised and papillary muscles from the right ventricle were excised.
The preparations were mounted in 10 ml organ bath which were filled with Krebs-Henseleit solution maintained at 36° C. and oxygenated with 95% O2 -5% CO2.
Right ventricular papillary muscles were stimulated electrically at a rate of 1 Hz by a suprathreshold (1.2×threshold) rectangular pulse 3 ms in duration. The resting tension applied to the papillary muscles was adjusted to produce maximum developed tension. The developed tension was recorded isometrically by means of force-displacement transducer. The text compounds were dissolved in diluted hydrochloric acid and were added to the bath. Contractility after administration was compared to that prior to administration.
The test compounds are those prepared in the examples later described.

Anesthetized Dog = assay: Effect of compounds on cardiac contractility, heart rate and blood pressure in Anesthetized Dog; type: in vivo, mongrel dogs; conditions: intravenous
Protocol: Effect of compounds on cardiac contractility in Anesthetized Dog
Using male and female mongrel dogs subjected to artificial respiration and anesthetized by inhalation of Halothane cardiotonic effect of compounds was examined. The aortic pressure and the left ventricular pressure were recorded with a catheter inserted from the femoral artery into the aorta of the chest and with a micro tip pressure transducer (Millar) inserted from the carotid into the left ventricle, respectively. The heart rate was monitored by means of a tachograph triggered by the left ventricular pressure pulse. As an index of cardiac contractility, a primary differentation (LV dp/dt max) of the left ventricular pressure pulse was recorded. The test compounds were dissolved in physiological saline or diluted hydrochloric acid or polyethylene glycol and the solutions were intravenously given through the catheter inserted into the femoral vein.
Percent changes by the test compounds in cardiac contractility, heart rate and blood pressure obtained by the foregoing method are shown in Table 2, when compared to those prior to administration of the test compounds. In Table 2, the test compounds are those prepared in the examples later described.

[2] = system: coronary and femoral blood flow; assay: Effect of compounds on coronary and femoral blood flow in anesthetized dogs; type: in vivo, mongrel dogs; conditions: intraarterial
Protocol: Effect of compounds on coronary and femoral blood flow
Using male and femal mongrel dogs thoracotomized at the left 4th intercostal space under artificial respiration and inhalation anesthesia with Halothane, effect of coronary and femoral blood flow was examined by intrarterial administration. By placing an electromagnetic flowprobe around the left circumflex coronary artery and the femoral artery, the blood flows of both arteries were measured. Shallow catheters were inserted in and fixed to the arterial branch distal to the flowprobe and the test compounds were intrarterially administered through the catheters. In this case, the blood pressure, the heart rate and the cardiac contractility were also recorded simultaneously. Each test compound was used by dissolving it in physiological saline, diluted hydrochloric acid or polyethylene glycol in a dose not accompanied by any change in the blood pressure, the heart rate and the cardiac contractility.

platelets = assay: Effect of compounds on platelet aggregation caused by collagen; type: cell-based, healthy volunteers; conditions: Homo sapiens, collagen 1 μg/ml, read-out: inhibition rate of platelet aggregation
Protocol: Effect of compounds on platelet aggregation
Using platelets obtained from healthy volunteers, effect of compounds on platelet aggregation caused by collagen (1 μg/ml) was examined.

rats = assay: Acute toxicity test by oral administration in rats; type: in vivo; conditions: 3 g/kg, 4 in each group
Protocol: (§1) Acute toxicity was tested by oral administration in rats and mice. The results reveal that the compounds of the present invention have extremely low toxicity.

mice = assay: Acute toxicity test by oral administration in mice; type: in vivo; conditions: 3 g/kg, 4 in each group
Protocol: as §1

| Compound | activation at 100 µM [1] | activation at 10 µM [1] | activation at 1 µM [1] | Change in Blood Pressure (Anesthetized Dog; 10 μg/kg) | Change in Cardiac Contractility (LV dp/dt max) (Anesthetized Dog; 10 μg/kg) | Change in Heart Rate (Anesthetized Dog; 10 μg/kg) | Change in Blood Pressure (Anesthetized Dog; 30 μg/kg) | Change in Cardiac Contractility (LV dp/dt max) (Anesthetized Dog; 30 μg/kg) | Change in Heart Rate (Anesthetized Dog; 30 μg/kg) | Change in Blood Pressure (Anesthetized Dog; 100 μg/kg) | Change in Cardiac Contractility (LV dp/dt max) (Anesthetized Dog; 100 μg/kg) | Change in Heart Rate (Anesthetized Dog; 100 μg/kg) | also measured |
| --- | --- | --- | --- | --- | --- | --- | --- | --- | --- | --- | --- | --- | --- |
| CCc1[nH]c(=O)c(C#N)cc1-c1ccc2nc(C)cn2c1 [Example 2, 1,2-Dihydro-6-ethyl-5-(2-methylimidazo[1,2-a]pyridin-6-yl)-2-oxo-3-pyridinecarbonitrile] | 106% | 73.5% | 34.1% |  |  |  |  |  |  |  |  |  |  |
| Cc1[nH]c(=O)ccc1-c1ccc2nccn2c1 [Example 10, 1,2-Dihydro-6-methyl-5-(imidazo[1,2-a]pyridin-6-yl)-2-oxo-pyridine] | 110% | 76.3% | 37.9% | -2% | 11% | 2% | -5% | 25% | 4% |  |  |  |  |
| COc1nc(C)c(-c2ccc3nccn3c2)cc1C#N [Example 14, 5-(Imidazo[1,2-a]pyridin-6-yl)-2-methoxy-6-methyl-3-pyridinecarbonitrile] |  |  |  |  |  |  |  |  |  |  |  |  | Change in Blood Pressure (Anesthetized Dog; 300 μg/kg): -6%; Change in Cardiac Contractility (LV dp/dt max) (Anesthetized Dog; 300 μg/kg): 10%; Change in Heart Rate (Anesthetized Dog; 300 μg/kg): 6%; Change in Blood Pressure (Anesthetized Dog; 1000 μg/kg): -4%; Change in Cardiac Contractility (LV dp/dt max) (Anesthetized Dog; 1000 μg/kg): 41%; Change in Heart Rate (Anesthetized Dog; 1000 μg/kg): 0% |
| Cc1[nH]c(=O)c(C#N)cc1-c1ccc2nccn2c1 [Example 1, 1,2-Dihydro-5-(imidazo[1,2-a]pyridin-6-yl)-6-methyl-2-oxo-3-pyridinecarbonitrile] | 129% | 88% | 40.7% | 0% | 16% | 6% | -5% | 68% | 15% | -17% | 97% | 22% | Coronary Blood Flow ([2]; dose 3 ug): 25 Δ%; Femoral Blood Flow ([2]; dose 3 ug): 18 Δ%; Coronary Blood Flow ([2]; dose 10 ug): 63 Δ%; Femoral Blood Flow ([2]; dose 10 ug): 51 Δ%; Femoral Blood Flow ([2]; dose 30 ug): 76 Δ%; inhibition at 1 µM (platelets; 1×10^-6 M): 41%; inhibition at 3 µM (platelets; 3×10^-6 M): 90%; inhibition at 0.3 µM (platelets; 3×10^-7 M): 14%; death in acute toxicity test (rats): no death was noted; death in acute toxicity test (mice): no death was noted |
| CCc1[nH]c(=O)c(C#N)cc1-c1ccc2nccn2c1 [Example 6, 1,2-Dihydro-6-ethyl-5-(imidazo[1,2-a]pyridin-6-yl)-2-oxo-3-pyridinecarbonitrile] |  |  |  | -1% | 14% | 0% | -2% | 30% | 5% | -7% | 58% | 10% |  |
| Cc1cn2cc(-c3cc(C#N)c(=O)[nH]c3C)ccc2n1 [Example 7, 1,2-Dihydro-6-methyl-5-(2-methylimidazo[1,2-a]pyridin-6-yl)-2-oxo-3-pyridinecarbonitrile] | 130% | 95.7% | 56.7% | 0% | 21% | 8% | -13% | 114% | 18% |  |  |  |  |
